# Calls of active or inactive are those of the source.
# Key:
# Format in all cases: functional
# [1] = target: MAP kinase-activated protein kinase 2 (Homo sapiens, UniProt P49137);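 further: measured as one member of a kinome-wide kinase panel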
# Aurora kinase B = Aurora kinase B (Homo sapiens, UniProt Q96GD4)
# [2] = target: Serine/threonine-protein kinase pim-2 (Homo sapiens, UniProt Q9P1W9);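 further: value comes from a broad kinase panel profiling study in which PIM2 was one of the panel members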
# [3] = target: T1, 3-phosphoinositide-dependent protein kinase 1 (Homo sapiens, UniProt O15530);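 further: value comes from the Navigating the Kinome panel, PDPK1 member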
# T1 sequence (O15530 whole entry): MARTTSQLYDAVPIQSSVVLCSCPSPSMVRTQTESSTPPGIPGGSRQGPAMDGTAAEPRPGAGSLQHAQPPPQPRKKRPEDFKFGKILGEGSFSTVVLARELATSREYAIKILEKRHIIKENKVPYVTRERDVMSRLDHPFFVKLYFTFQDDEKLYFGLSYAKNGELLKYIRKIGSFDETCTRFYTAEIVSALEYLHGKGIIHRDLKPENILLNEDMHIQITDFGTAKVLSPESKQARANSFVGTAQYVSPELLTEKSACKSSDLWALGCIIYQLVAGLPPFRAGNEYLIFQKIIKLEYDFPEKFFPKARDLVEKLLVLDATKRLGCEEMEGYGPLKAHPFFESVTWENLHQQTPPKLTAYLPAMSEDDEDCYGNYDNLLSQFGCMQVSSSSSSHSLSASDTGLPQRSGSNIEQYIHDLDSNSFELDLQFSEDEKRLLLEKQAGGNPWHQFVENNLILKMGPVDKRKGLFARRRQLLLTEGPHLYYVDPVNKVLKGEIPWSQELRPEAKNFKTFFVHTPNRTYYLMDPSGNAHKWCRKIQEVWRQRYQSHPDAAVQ
# [4] = target: Phosphorylase b kinase gamma catalytic chain, liver/testis isoform (Homo sapiens, UniProt P15735);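 further: PHKG2 measured as one member of a kinome-wide kinase panel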
# [5] = target: T2, Dual specificity tyrosine-phosphorylation-regulated kinase 4 (Homo sapiens, UniProt Q9NR20)
# T2 sequence (Q9NR20 whole entry): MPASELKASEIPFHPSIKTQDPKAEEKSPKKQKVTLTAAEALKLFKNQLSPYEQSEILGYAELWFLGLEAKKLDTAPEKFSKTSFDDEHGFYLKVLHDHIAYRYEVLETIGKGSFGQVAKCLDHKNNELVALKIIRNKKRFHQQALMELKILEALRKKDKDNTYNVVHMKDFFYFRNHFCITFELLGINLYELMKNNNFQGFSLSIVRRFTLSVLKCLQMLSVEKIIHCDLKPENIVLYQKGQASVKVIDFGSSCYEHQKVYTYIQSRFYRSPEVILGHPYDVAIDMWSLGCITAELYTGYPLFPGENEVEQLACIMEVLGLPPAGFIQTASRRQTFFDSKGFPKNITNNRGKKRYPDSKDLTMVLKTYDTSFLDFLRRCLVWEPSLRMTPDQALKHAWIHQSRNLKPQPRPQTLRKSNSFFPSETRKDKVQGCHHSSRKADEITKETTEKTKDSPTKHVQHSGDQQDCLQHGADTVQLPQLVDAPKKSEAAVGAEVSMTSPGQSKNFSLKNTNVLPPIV
# Misshapen-like kinase 1 = Misshapen-like kinase 1 (Homo sapiens, UniProt Q8N4C8);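 further: kinome panel screen with MINK as the panel member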
# [6] = target: Megakaryocyte-associated tyrosine-protein kinase (Homo sapiens, UniProt P42679);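 further: affinity measured as one member of a kinase panel (Navigating the Kinome) against MATK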
# [7] = target: Tyrosine-protein kinase FRK (Homo sapiens, UniProt P42685);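 further: FRK tested as one member of a kinome panel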
# [8] = target: MAP/microtubule affinity-regulating kinase 3 (Homo sapiens, UniProt P27448);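 further: MARK3 affinity measured as one member of a kinome panel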
# [9] = target: Casein kinase I isoform alpha (Homo sapiens, UniProt P48729)
# [10] = target: T3, Mitogen-activated protein kinase kinase kinase kinase 2 (Homo sapiens, UniProt Q12851);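 further: measured as one member of a kinome-wide kinase panel, with MAP4K2 as the panel entry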
# T3 sequence (Q12851 whole entry): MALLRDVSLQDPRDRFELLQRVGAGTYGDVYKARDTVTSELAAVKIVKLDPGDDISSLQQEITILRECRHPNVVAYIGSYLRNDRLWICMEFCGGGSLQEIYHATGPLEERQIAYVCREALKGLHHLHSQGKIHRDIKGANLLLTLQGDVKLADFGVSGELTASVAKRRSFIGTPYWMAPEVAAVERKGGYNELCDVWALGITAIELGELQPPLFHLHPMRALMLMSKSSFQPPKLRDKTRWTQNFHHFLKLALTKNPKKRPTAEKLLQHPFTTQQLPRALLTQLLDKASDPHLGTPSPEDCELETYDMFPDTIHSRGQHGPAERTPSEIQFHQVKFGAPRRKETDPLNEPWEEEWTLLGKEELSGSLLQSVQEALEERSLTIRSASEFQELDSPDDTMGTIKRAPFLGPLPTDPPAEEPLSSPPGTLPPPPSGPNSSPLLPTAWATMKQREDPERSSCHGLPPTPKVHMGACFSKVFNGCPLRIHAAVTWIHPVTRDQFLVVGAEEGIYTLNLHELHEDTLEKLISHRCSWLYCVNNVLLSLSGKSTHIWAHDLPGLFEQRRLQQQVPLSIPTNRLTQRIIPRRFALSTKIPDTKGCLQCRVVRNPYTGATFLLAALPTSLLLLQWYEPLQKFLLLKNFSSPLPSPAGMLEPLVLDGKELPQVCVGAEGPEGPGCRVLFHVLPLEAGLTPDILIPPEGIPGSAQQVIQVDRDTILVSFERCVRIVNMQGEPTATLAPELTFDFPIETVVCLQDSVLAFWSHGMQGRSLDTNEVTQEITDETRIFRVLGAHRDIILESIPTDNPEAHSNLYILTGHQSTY
# [11] = target: Serine/threonine-protein kinase DCLK1 (Homo sapiens, UniProt O15075);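 further: affinity for DCLK1 (listed as DCAMKL1) measured as one member of a kinome-wide kinase profiling panel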
# [12] = target: Non-receptor tyrosine-protein kinase TYK2 (Homo sapiens, UniProt P29597)
# [13] = target: Lymphokine-activated killer T-cell-originated protein kinase (Homo sapiens, UniProt Q96KB5);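 further: value comes from a kinase panel screen in which TOPK was one of the panel members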
# Lymphokine-activated killer T-cell-originated protein kinase, sequence (Q96KB5 whole entry): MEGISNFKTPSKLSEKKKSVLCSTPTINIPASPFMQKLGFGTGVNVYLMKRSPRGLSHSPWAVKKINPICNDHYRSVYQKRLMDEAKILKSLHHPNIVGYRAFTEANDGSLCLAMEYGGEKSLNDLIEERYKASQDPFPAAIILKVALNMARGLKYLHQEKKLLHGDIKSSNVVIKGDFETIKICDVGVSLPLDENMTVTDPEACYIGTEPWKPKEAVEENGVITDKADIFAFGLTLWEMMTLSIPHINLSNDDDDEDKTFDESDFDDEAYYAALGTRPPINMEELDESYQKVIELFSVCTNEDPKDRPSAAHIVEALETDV
# Misshapen-like kinase 1, sequence (Q8N4C8 whole entry): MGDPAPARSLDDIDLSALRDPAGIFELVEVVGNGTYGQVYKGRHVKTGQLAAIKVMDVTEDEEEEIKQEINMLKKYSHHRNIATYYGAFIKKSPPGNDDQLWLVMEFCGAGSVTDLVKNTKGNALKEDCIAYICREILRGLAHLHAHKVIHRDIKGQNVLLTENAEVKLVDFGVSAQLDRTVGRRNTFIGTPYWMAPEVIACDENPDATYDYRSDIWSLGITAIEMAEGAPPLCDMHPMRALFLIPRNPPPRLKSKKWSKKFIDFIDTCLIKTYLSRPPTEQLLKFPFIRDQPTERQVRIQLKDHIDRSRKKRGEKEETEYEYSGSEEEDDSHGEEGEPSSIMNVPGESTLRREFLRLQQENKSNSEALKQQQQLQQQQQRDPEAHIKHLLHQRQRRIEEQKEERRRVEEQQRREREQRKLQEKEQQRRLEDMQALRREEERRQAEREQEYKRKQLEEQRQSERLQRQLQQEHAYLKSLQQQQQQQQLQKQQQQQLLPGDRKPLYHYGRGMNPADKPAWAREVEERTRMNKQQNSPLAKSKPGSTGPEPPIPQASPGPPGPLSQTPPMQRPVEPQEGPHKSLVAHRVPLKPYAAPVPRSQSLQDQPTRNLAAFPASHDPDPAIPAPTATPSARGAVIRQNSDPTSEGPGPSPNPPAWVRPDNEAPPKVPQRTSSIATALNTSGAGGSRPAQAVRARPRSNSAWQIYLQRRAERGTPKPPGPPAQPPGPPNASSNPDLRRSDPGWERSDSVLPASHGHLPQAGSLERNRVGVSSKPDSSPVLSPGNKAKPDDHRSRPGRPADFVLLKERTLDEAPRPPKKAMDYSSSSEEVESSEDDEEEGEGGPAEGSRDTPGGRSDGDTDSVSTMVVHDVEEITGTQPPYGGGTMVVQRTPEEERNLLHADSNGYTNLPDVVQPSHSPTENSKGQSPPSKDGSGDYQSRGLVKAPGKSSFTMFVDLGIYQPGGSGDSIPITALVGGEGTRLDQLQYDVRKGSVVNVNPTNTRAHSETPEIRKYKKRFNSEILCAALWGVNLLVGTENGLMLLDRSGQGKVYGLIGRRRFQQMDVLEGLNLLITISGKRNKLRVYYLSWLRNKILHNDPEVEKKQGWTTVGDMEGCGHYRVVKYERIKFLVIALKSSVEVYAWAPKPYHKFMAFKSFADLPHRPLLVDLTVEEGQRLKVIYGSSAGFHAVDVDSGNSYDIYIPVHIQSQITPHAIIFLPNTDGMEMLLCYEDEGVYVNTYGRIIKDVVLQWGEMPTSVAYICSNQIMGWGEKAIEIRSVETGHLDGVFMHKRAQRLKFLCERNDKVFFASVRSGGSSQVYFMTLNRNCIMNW
# Casein kinase I isoform alpha, sequence (P48729 whole entry, canonical isoform): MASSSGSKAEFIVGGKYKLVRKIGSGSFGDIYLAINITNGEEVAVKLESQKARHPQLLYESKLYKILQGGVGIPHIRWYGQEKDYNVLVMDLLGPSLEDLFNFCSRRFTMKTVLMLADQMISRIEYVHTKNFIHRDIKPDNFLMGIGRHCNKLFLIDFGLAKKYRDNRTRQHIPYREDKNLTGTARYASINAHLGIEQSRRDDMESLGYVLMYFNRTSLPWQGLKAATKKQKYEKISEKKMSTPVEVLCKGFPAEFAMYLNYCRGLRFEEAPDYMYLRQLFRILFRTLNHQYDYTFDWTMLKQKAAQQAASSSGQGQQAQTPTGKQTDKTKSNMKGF
# Tyrosine-protein kinase FRK, sequence (P42685 whole entry): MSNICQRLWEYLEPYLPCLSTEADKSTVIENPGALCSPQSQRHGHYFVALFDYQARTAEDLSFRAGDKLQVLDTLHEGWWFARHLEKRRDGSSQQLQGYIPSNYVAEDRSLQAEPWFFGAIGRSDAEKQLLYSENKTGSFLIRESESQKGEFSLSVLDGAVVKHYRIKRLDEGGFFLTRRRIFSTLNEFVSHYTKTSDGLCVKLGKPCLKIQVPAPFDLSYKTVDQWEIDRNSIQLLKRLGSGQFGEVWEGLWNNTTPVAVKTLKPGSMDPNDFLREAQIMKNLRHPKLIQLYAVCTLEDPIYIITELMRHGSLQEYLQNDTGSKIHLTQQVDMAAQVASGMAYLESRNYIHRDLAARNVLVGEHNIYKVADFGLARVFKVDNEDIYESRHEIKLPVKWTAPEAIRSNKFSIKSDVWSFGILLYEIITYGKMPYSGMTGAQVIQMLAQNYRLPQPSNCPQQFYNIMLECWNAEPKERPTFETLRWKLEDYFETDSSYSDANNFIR
# Non-receptor tyrosine-protein kinase TYK2, sequence (P29597 whole entry): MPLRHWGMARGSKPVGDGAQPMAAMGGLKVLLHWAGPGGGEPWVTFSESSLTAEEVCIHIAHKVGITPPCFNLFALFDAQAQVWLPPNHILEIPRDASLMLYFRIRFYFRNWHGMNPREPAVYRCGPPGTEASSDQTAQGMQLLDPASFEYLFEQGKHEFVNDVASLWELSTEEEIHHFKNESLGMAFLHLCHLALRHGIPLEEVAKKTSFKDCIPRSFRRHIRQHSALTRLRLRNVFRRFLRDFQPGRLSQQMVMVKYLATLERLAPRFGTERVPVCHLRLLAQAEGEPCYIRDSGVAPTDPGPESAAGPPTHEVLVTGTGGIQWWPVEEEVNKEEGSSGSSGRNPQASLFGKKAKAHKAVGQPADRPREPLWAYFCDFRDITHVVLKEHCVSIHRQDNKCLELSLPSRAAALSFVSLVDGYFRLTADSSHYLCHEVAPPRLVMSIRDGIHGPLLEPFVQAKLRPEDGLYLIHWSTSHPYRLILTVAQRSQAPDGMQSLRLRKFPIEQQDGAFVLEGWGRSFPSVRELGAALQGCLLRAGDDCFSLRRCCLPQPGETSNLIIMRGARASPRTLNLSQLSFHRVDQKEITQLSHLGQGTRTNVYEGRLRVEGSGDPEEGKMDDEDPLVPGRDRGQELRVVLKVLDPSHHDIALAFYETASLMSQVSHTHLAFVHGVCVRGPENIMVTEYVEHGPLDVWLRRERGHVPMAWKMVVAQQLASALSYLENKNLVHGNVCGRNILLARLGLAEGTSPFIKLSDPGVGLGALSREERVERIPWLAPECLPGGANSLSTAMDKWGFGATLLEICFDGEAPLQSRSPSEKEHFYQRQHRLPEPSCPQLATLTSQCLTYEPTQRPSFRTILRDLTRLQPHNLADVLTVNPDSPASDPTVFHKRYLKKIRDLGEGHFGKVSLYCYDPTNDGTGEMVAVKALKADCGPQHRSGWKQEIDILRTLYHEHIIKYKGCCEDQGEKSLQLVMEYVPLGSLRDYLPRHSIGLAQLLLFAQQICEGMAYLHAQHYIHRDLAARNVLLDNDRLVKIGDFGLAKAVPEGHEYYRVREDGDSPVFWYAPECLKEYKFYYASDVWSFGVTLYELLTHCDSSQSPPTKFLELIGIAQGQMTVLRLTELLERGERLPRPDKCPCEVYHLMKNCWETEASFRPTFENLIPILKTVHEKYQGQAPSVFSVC
# Aurora kinase B, sequence (Q96GD4 whole entry): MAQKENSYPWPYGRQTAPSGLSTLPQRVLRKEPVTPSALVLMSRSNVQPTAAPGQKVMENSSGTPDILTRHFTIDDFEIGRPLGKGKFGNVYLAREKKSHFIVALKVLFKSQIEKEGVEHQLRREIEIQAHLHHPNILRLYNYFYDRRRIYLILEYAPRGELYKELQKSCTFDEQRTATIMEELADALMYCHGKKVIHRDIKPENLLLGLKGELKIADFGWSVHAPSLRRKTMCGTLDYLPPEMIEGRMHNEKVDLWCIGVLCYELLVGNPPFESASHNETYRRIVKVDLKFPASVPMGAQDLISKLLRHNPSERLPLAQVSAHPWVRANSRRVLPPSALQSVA
# MAP/microtubule affinity-regulating kinase 3, sequence (P27448 whole entry, canonical isoform): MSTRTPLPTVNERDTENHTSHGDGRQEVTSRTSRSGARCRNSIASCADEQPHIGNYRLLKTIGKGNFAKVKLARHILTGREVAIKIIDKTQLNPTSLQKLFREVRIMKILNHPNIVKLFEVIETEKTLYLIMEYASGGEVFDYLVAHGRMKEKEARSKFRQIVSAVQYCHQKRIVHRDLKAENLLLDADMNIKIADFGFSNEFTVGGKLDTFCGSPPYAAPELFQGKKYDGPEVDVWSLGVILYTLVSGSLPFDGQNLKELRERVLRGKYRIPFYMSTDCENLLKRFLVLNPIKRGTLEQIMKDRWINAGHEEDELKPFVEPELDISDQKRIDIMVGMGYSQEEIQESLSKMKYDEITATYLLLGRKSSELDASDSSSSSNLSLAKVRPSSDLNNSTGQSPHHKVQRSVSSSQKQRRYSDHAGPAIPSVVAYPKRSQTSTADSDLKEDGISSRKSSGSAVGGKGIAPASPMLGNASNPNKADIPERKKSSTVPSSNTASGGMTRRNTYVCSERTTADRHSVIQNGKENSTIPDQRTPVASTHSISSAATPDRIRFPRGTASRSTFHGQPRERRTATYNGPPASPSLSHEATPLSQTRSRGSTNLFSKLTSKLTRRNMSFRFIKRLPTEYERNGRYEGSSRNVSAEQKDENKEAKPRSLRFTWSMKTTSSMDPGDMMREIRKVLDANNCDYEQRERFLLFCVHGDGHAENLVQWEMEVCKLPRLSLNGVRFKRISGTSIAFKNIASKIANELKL
Compound,Ki [1],Ki (Aurora kinase B),Ki [2],Ki [3],Ki [4],Ki [5],Ki (Misshapen-like kinase 1),Ki [6],Ki [7],Ki [8],Ki [9],Ki [10],Ki [11],Ki [12],Ki [13],other results
NC(=O)c1cc(-c2ccnc(N)n2)[nH]c1-c1ccc(Cl)cc1Cl,> 7940 nM (inactive),631 nM (active),> 1580 nM (inactive),> 3980 nM (inactive),> 5010 nM (inactive),10 nM (active),1580 nM (active),> 2000 nM (inactive),2000 nM (active),501 nM (active),7.94 nM (active),200 nM (active),> 10000 nM (inactive),794 nM (active),3160 nM (active),pKi (Aurora kinase B): 6.2; pKi [5]: 8; pKi (Misshapen-like kinase 1): 5.8; pKi [7]: 5.7; pKi [8]: 6.3; pKi [9]: 8.1; pKi [10]: 6.7
Cc1ccc(-n2nc(C(C)(C)C)cc2NC(=O)Nc2ccc(OCCN3CCOCC3)c3ccccc23)cc1 [DORAMAPIMOD],,> 5010 nM (inactive),,> 3980 nM (inactive),,,,,,> 5010 nM (inactive),,> 2510 nM (inactive),,> 2000 nM (inactive),,
NC(COc1cncc(-c2ccc3c(c2)C(=Cc2ccco2)C(=O)N3)c1)Cc1c[nH]c2ccccc12 (configuration not stated),2000 nM (active),200 nM (active),1 nM (active),50.1 nM (active),12.6 nM (active),398 nM (active),39.8 nM (active),> 2000 nM (inactive),316 nM (active),39.8 nM (active),501 nM (active),39.8 nM (active),1000 nM (active),> 2000 nM (inactive),501 nM (active),
